Test results published in patent publication US20240208937A1, “Compounds and Their Use for Treatment of Hemoglobinopathies” (Bristol-Myers Squibb Company, priority 2022, published 2024).

How the values were obtained:
Format in all cases: cell-based
[1] = biological target: ZBTB7A (Zinc Finger And BTB Domain Containing 7A) (Homo sapiens (Human), UniProt O95365+Q96SW2); test: HUDEP-2 ZBTB7A HiBiT degradation assay; details: HUDEP-2 ZBTB7A HiBiT cells, 24 hours treatment, luminescence
Method in brief: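 HUDEP-2 cells carrying HiBiT-tagged ZBTB7A, grown 48 h in IMDM with EPO, SCF, insulin, transferrin, heparin, dox and 5% human plasma, then seeded at 1.0×10^6 cells/ml on pre-dispensed compound (10 concentrations, 10–0.0005 μM) for 24 h at 37 °C. Lytic HiBiT luminescence, DMSO-normalised, gave EC50 and Y-min.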

[2] = biological target: WIZ (Widely interspaced zinc finger) (Homo sapiens (Human), UniProt O95785+Q96SW2); test: HUDEP-2 WIZ HiBiT degradation assay; details: HUDEP-2 WIZ HiBiT cells, 24 hours treatment, luminescence; for DC50: read-out: WIZ EC50
Method in brief: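 HiBiT-tagged WIZ HUDEP-2 cells were seeded at 1.0×10^6 cells/ml in supplemented StemSpan SFEM II with doxycycline and treated 24 h at 37 °C. Remaining tagged protein was read by Nano-Glo HiBiT lytic luminescence. EC50 and Y-min were fitted after DMSO normalization across 10 concentrations, 10 to 0.0005 μM.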

[3] = tested on: fetal hemoglobin (HbF) in GCSF-mobilized human CD34+ cells; test: HbF Induction Assay; details: 168 h; compound 1 μM, 7 days, erythroid-differentiated human CD34+ cells, flow cytometry; DMSO baseline 15% HbF positive cells
Method in brief: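 GCSF-mobilized human CD34+ cells were expanded for 7 days with SCF, Flt3-L, IL-3 and EPO, then differentiated with SCF and EPO while dosed at 1 μM (0.1% DMSO), with compound refreshed every 2 days for 7 days. Viability and % HbF-positive cells and MFI were measured by flow cytometry with anti-HbF staining, relative to DMSO controls.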

Sequence of WIZ (Widely interspaced zinc finger) (O95785 whole entry): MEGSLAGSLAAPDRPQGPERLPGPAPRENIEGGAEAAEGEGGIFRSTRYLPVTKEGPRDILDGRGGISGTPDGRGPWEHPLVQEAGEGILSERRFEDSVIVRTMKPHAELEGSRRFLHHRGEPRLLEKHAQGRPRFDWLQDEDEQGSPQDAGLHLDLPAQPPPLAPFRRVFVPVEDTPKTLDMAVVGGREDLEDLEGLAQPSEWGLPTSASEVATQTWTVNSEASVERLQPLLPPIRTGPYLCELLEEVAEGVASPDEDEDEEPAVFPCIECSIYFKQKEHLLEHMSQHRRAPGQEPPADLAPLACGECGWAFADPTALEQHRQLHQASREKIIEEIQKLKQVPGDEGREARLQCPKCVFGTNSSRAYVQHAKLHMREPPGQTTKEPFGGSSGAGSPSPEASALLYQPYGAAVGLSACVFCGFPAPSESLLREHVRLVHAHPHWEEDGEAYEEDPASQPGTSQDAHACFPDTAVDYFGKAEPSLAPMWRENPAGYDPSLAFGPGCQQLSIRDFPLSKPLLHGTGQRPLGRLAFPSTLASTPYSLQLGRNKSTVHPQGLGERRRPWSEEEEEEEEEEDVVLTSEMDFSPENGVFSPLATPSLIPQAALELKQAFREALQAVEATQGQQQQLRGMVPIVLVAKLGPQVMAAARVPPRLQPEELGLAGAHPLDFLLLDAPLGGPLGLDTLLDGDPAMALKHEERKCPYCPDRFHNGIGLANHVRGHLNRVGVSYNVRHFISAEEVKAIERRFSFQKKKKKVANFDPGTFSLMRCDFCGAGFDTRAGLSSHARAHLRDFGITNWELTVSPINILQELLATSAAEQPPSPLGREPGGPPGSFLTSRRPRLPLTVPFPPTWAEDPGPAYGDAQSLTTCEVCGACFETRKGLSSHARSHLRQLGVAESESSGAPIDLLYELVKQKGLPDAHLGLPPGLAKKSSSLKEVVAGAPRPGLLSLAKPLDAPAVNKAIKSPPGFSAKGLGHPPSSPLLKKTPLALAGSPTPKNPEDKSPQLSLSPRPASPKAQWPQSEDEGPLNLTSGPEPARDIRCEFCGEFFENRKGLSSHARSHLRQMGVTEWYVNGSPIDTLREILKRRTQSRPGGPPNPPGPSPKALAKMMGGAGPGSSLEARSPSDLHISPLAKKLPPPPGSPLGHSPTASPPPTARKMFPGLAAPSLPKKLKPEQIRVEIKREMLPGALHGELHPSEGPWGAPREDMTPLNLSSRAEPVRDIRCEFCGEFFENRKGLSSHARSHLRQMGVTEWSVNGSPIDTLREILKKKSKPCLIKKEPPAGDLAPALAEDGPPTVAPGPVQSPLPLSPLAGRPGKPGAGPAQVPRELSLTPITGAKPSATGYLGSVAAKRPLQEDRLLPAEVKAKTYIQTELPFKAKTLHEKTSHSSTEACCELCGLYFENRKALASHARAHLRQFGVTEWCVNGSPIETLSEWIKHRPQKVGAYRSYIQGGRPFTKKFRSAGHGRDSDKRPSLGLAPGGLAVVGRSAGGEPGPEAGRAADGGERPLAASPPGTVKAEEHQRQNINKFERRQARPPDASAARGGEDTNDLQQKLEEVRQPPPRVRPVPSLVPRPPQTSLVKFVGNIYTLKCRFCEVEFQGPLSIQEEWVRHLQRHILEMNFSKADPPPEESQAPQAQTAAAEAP
Sequence of WIZ (Widely interspaced zinc finger) (Q96SW2 whole entry): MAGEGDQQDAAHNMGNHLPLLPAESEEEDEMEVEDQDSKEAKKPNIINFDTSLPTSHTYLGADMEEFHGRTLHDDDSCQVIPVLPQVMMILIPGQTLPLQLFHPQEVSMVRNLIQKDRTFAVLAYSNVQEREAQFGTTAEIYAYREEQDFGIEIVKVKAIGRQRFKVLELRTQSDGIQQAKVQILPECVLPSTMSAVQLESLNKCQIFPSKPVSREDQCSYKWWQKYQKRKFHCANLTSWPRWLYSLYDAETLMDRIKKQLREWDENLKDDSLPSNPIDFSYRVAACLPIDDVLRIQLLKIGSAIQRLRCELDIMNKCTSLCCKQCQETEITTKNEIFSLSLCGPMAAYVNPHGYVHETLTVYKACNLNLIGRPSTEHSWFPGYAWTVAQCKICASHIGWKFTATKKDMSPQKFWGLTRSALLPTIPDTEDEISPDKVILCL
Sequence of WIZ (Widely interspaced zinc finger) (Q16531 whole entry partner): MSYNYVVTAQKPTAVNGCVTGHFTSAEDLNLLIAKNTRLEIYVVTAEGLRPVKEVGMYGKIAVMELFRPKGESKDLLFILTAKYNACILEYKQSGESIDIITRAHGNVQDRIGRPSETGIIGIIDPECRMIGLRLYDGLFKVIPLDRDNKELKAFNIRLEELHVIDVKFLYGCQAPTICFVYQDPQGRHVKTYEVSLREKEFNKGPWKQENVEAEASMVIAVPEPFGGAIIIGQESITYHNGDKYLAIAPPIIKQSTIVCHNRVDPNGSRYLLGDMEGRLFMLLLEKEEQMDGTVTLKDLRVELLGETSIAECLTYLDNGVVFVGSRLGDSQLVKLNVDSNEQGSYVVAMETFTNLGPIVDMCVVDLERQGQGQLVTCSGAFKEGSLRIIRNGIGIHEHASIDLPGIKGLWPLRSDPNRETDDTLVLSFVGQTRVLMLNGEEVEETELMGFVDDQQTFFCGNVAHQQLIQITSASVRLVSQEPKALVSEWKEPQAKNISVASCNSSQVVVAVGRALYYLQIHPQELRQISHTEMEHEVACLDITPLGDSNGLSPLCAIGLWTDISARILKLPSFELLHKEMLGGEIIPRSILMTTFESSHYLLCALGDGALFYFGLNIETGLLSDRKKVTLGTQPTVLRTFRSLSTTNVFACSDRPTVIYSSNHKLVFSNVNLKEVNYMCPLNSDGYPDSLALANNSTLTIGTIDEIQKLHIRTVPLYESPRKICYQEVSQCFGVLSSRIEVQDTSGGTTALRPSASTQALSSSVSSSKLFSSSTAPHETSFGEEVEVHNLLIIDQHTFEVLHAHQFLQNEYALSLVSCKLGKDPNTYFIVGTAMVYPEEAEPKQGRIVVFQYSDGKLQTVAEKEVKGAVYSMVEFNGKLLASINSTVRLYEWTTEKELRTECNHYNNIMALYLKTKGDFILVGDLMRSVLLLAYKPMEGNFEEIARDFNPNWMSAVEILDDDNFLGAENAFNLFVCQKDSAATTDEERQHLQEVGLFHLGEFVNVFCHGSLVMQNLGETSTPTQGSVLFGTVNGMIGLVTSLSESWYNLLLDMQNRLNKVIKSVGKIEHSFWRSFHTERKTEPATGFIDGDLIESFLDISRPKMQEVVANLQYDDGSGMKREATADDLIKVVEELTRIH
Sequence of ZBTB7A (Zinc Finger And BTB Domain Containing 7A) (O95365 whole entry, the tested form may be a part): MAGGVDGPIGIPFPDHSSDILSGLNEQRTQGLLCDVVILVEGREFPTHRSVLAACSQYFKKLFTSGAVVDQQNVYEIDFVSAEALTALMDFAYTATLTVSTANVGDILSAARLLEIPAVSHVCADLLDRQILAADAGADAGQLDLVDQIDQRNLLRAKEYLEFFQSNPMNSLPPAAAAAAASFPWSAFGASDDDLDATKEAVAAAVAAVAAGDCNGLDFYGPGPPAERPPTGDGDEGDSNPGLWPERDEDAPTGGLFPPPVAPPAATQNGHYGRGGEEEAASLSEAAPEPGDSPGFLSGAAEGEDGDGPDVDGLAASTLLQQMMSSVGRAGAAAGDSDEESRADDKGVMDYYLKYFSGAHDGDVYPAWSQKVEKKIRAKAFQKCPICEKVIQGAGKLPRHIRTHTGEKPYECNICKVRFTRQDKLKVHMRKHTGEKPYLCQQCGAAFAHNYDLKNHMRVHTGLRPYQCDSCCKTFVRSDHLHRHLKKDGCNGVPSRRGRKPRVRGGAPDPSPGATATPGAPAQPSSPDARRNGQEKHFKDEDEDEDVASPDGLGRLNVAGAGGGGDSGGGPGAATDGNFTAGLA
Sequence of ZBTB7A (Zinc Finger And BTB Domain Containing 7A) (Q96SW2 whole entry, the tested form may be a part): as the sequence (Q96SW2 whole entry) above
Sequence of ZBTB7A (Zinc Finger And BTB Domain Containing 7A) (Q16531 whole entry partner, the tested form may be a part): as the sequence (Q16531 whole entry partner) above

Structure (SMILES)	EC50 [1] [nM]	DC50 [2] [nM]	activation at 1 µM [3] [%]	DC50 ([1]; read-out: ZBTB7A EC50) [nM]	EC50 [2] [nM]
Cc1ncncc1Oc1ccc2c(cnn2C)c1Nc1cccc2c1C(=O)N(C1CCC(=O)NC1=O)C2=O (stereo not drawn) [Compound 26, 2-(2,6-dioxopiperidin-3-yl)-4-((1-methyl-5-((4-methylpyrimidin-5-yl)oxy)-1H-indazol-4-yl)amino)isoindoline-1,3-dione]	> 100	10 to 100	< 33	–	–
Cc1cc(-c2cc3ncn(C4CC4)c3cc2Nc2cccc3c2C(=O)N(C2CCC(=O)NC2=O)C3=O)ccn1 (stereo not drawn) [Compound 2, 4-((1-cyclopropyl-5-(2-methylpyridin-4-yl)-1H-benzo[d]imidazol-6-yl)amino)-2-(2,6-dioxopiperidin-3-yl)isoindoline-1,3-dione]	–	< 10	66 to 100	< 30	–
Cc1cc(-c2cc3c(cc2Nc2cccc4c2C(=O)N(C2CCC(=O)NC2=O)C4=O)N(C)C(=O)CC3)c(F)cn1 (stereo not drawn) [Compound 46, 2-(2,6-dioxopiperidin-3-yl)-4-((6-(5-fluoro-2-methylpyridin-4-yl)-1-methyl-2-oxo-1,2,3,4-tetrahydroquinolin-7-yl)amino)isoindoline-1,3-dione]	< 30	–	66 to 100	–	< 10
